# Like-named read-outs stand apart in the source and are kept apart here.
# Tested on: wild‐type BCG cells
# Type: cell-based, M. bovis BCG
# Details: for Mean_Ratio GDI5755_3d: DMSO_3d: Table S6; for Mean Ratio: GDI5755_2d vs DMSO_2d; for Mean Ratio / Mean Ratio (GDI5755_2d vs DMSO_2d): up-regulated; for Mean_Ratio (GDI5755_3d vs DMSO_3d): down-regulated, 3 d; for Mean Ratio (GDI5755_2d vs DMSO_2d): 2d
structure (smiles),measurement,setting,value
O=C(Oc1ccc(Cl)cc1)c1ccc(N2CCOCC2)c([N+](=O)[O-])c1 [GDI‐5755],Mean_Ratio GDI5755_3d: DMSO_3d,BCG_1101c Serine protease,1.4
same,Mean_Ratio GDI5755_3d: DMSO_3d,BCG_1189c HNH nuclease domain-containing protein,1.3
same,Mean_Ratio GDI5755_3d: DMSO_3d,BCG_1283 Probable serine protease htrA,1.3
same,Mean_Ratio GDI5755_3d: DMSO_3d,BCG_1324 Uncharacterized protein,1.3
same,Mean_Ratio GDI5755_3d: DMSO_3d,BCG_1333 Lipoprotein lprB,1.3
same,Mean_Ratio GDI5755_3d: DMSO_3d,BCG_1334 Lipoprotein lprC,1.3
same,Mean_Ratio GDI5755_3d: DMSO_3d,BCG_1438c Transferase,1.3
same,Mean_Ratio GDI5755_3d: DMSO_3d,BCG_1471c Probable triacylglyceride transporter,1.3
same,Mean_Ratio GDI5755_3d: DMSO_3d,BCG_1492 Conserved membrane protein,1.3
same,Mean_Ratio GDI5755_3d: DMSO_3d,BCG_1523 Fe-S cluster assembly protein SufD,1.3
same,Mean_Ratio GDI5755_3d: DMSO_3d,BCG_1532 Thioredoxin,1.3
same,Mean_Ratio GDI5755_3d: DMSO_3d,BCG_1543 UPF0353 protein,1.3
same,Mean_Ratio GDI5755_3d: DMSO_3d,BCG_1787 DUF4129 domain-containing protein,1.4
same,Mean_Ratio GDI5755_3d: DMSO_3d,BCG_1890c NADH dehydrogenase ndh,1.5
same,Mean_Ratio GDI5755_3d: DMSO_3d,BCG_1937 Thiamine-binding protein-containing protein,1.3
same,Mean_Ratio GDI5755_3d: DMSO_3d,BCG_1984 HNH nuclease domain-containing protein,1.3
same,Mean_Ratio GDI5755_3d: DMSO_3d,BCG_2183c Transcriptional regulator MraZ,1.3
same,Mean_Ratio GDI5755_3d: DMSO_3d,BCG_2241c Serine protease Hip1,1.3
same,Mean_Ratio GDI5755_3d: DMSO_3d,BCG_2351c Probable lipoprotein lppP,1.3
same,Mean_Ratio GDI5755_3d: DMSO_3d,BCG_2486c DSBA-like thioredoxin domain-containing protein,1.7
same,Mean_Ratio GDI5755_3d: DMSO_3d,BCG_2516c pyruvate dehydrogenase E1 component pdhB,1.3
same,Mean_Ratio GDI5755_3d: DMSO_3d,BCG_2656 Uncharacterized protein,1.4
same,Mean_Ratio GDI5755_3d: DMSO_3d,BCG_2721c DUF3039 domain-containing protein,1.4
same,Mean_Ratio GDI5755_3d: DMSO_3d,"BCG_2723 RNA polymerase sigma factor, sigB",1.3
same,Mean_Ratio GDI5755_3d: DMSO_3d,BCG_2934c Possible D-amino acid aminohydrolase,1.4
same,Mean_Ratio GDI5755_3d: DMSO_3d,BCG_3028 conserved lipoprotein lppZ,1.3
same,Mean_Ratio GDI5755_3d: DMSO_3d,BCG_3153c Diacylglycerol O-acyltransferase,1.4
same,Mean_Ratio GDI5755_3d: DMSO_3d,BCG_3164 Probable NADPH quinone oxidoreductase fadB4,1.2
same,Mean_Ratio GDI5755_3d: DMSO_3d,BCG_3165c Uncharacterized protein,1.3
same,Mean_Ratio GDI5755_3d: DMSO_3d,BCG_3185c Dioxygenase,2.2
same,Mean_Ratio GDI5755_3d: DMSO_3d,BCG_3269c Protein translocase subunit SecA 1,1.2
same,Mean_Ratio GDI5755_3d: DMSO_3d,BCG_3476 Probable dioxygenase,1.6
same,Mean_Ratio GDI5755_3d: DMSO_3d,BCG_3583 Acetoacetate decarboxylase,1.3
same,Mean_Ratio GDI5755_3d: DMSO_3d,BCG_3590 Rieske-type oxygenase,1.4
same,Mean_Ratio GDI5755_3d: DMSO_3d,BCG_3674c ATP-dependent zinc metalloprotease FtsH,1.3
same,Mean_Ratio GDI5755_3d: DMSO_3d,BCG_3709 Rv3651-like N-terminal domain-containing protein,1.3
same,Mean_Ratio GDI5755_3d: DMSO_3d,BCG_3824c Two-component transcriptional regulator TcrX,1.4
same,Mean_Ratio GDI5755_3d: DMSO_3d,BCG_3881 Uncharacterized protein,1.4
same,Mean_Ratio GDI5755_3d: DMSO_3d,BCG_3905c Glycerol phosphoryl diester phosphodiesterase glpQ1,1.3
same,"Mean_Ratio (GDI5755_2d vs DMSO_2d), protein L-serine dehydratase","iTRAQ protein abundance ratio, 2 d treatment vs DMSO, sheet down-regulated, Protein_ID A0A0H3M0L9, Pvalue 5.14E-04",0.80
same,"Mean_Ratio (GDI5755_2d vs DMSO_2d), protein Endonuclease NucS","iTRAQ protein abundance ratio, 2 d treatment vs DMSO, sheet down-regulated, Protein_ID A0A0H3M5R4, Pvalue 4.43E-04",0.80
same,"Mean_Ratio (GDI5755_2d vs DMSO_2d), protein Trehalose 2-sulfotransferase","iTRAQ protein abundance ratio, 2 d treatment vs DMSO, sheet down-regulated, Protein_ID A0A0H3M7Q0, Pvalue 1.60E-03",0.80
same,"Mean_Ratio (GDI5755_2d vs DMSO_2d), protein DUF3263 domain-containing protein","iTRAQ protein abundance ratio, 2 d treatment vs DMSO, sheet down-regulated, Protein_ID A0A0H3M274, Pvalue 5.23E-03",0.80
same,"Mean_Ratio (GDI5755_2d vs DMSO_2d), protein Translation initiation factor IF-3","iTRAQ protein abundance ratio, 2 d treatment vs DMSO, sheet down-regulated, Protein_ID A0A0H3MDG6, Pvalue 1.81E-05",0.80
same,"Mean_Ratio (GDI5755_2d vs DMSO_2d), protein Possible conserved membrane or exported protein","iTRAQ protein abundance ratio, 2 d treatment vs DMSO, sheet down-regulated, Protein_ID A0A0H3MDQ9, Pvalue 5.91E-05",0.80
same,"Mean_Ratio (GDI5755_2d vs DMSO_2d), protein Large ribosomal subunit protein uL22","iTRAQ protein abundance ratio, 2 d treatment vs DMSO, sheet down-regulated, Protein_ID A1KGI7, Pvalue 5.54E-04",0.80
same,"Mean_Ratio (GDI5755_2d vs DMSO_2d), protein ATP-dependent Clp protease ATP-binding subunit ClpX","iTRAQ protein abundance ratio, 2 d treatment vs DMSO, sheet down-regulated, Protein_ID A1KLF3, Pvalue 2.57E-03",0.80
same,Mean Ratio,protein A0A0G2Q9F2 Ribonuclease P protein component,1.26
same,Mean_Ratio (GDI5755_3d vs DMSO_3d),"protein A0A0G2Q9J9, BCG_3329c (Rv3300c), Pseudouridine synthase RsuA/RluA-like domain-containing protein",0.7
same,Mean_Ratio (GDI5755_3d vs DMSO_3d),"protein A0A0G2Q9N9, BCG_0021 (Rv3915), N-acetylmuramoyl-L-alanine amidase CwlM",0.7
same,Mean Ratio,protein A0A0H3M0K6 Probable conserved transmembrane protein,1.32
same,Mean Ratio,protein A0A0H3M0R3 Secreted antigen 85-c fbpC (85C),1.28
same,Mean Ratio (GDI5755_2d vs DMSO_2d),protein A0A0H3M1A8 Isoniazid inductible gene protein iniC,1.34
same,Mean_Ratio (GDI5755_3d vs DMSO_3d),"protein A0A0H3M1E3, BCG_0162 (Rv0128), Probable conserved transmembrane protein",0.7
same,Mean Ratio (GDI5755_2d vs DMSO_2d),protein A0A0H3M1F5 DUF427 domain-containing protein,1.39
same,Mean Ratio,protein A0A0H3M1G0 Possible conserved lipoprotein lpqK,1.28
same,Mean_Ratio (GDI5755_3d vs DMSO_3d),"protein A0A0H3M1I3, BCG_0204 (Rv0167), Conserved hypothetical integral membrane protein yrbE1A",0.7
same,Mean_Ratio (GDI5755_3d vs DMSO_3d),"protein A0A0H3M1V2, BCG_0591c (Rv0547c), Possible oxidoreductase",0.757
same,Mean Ratio,protein A0A0H3M1X4 Probable dehydrogenase/reductase,1.28
same,Mean Ratio,protein A0A0H3M1Z8 Isoniazid inductible gene protein iniA,1.28
same,Mean Ratio,protein A0A0H3M2A5 Carboxymuconolactone decarboxylase-like domain-containing protein,1.25
same,Mean Ratio,protein A0A0H3M2D4 Possible conserved transmembrane protein,1.26
same,Mean_Ratio (GDI5755_3d vs DMSO_3d),"protein A0A0H3M2J1, BCG_0913c (Rv0861c), DNA helicase",0.746
same,Mean_Ratio (GDI5755_3d vs DMSO_3d),"protein A0A0H3M2K9, BCG_0627 (Rv0582), Ribonuclease VapC",0.74
same,Mean_Ratio (GDI5755_3d vs DMSO_3d),"protein A0A0H3M2L9, BCG_0933 (Rv0881), Possible rRNA methyltransferase",0.7
same,Mean_Ratio (GDI5755_3d vs DMSO_3d),"protein A0A0H3M2M6, BCG_0648c (Rv0602c), Two component DNA binding/Transcriptional regulatory protein tcrA",0.7

# — paper PMC12042115 (mLife, 2025)
